From US20090118271A1, “Preventive or Therapeutic Agents for Pancreatic Cancer, Ovarian Cancer, or Liver Cancer Comprising a Novel Water-Soluble Prodrug” (CHUGAI SEIYAKU KABUSHIKI KAISHA, priority 2005, published 2009)

What was measured:
Assay type in all cases: in vivo
[1] = tested on: human ovarian cancer cell line PA-1; assay: Antitumor effect in PA-1 tumor-bearing nude mice; conditions: PA-1 s.c. xenograft, BALB/c nude mice, 40 mg/kg/inj. (32 in terms of free base) intravenously, once a week for three weeks
Experimental: Antitumor effects were determined for representative examples of the compound groups of the present invention. Antitumor effects were determined using tumor-bearing mice generated by the subcutaneous transplantation of human ovarian cancer cell line PA-1 obtained from American Type Culture Collection (Virginia, USA) into the right ventral neck of BALB/c nude mice purchased from Japan Charles River.
After a one-week quarantine period, the purchased nude mice were subjected to subcutaneous transplantation of 9.8×10^6 PA-1 cells to their right ventral neck. Mice with a tumor size reaching 200 mm^3 or so were subjected to the experiment.
(§1) The compounds were dissolved in physiological saline, and were administered intravenously. The administration was carried out once a week for three weeks, for a total of three administrations. The antitumor effect was determined as tumor growth inhibition (TGI), using the following equation.
Tumor growth inhibition (TGI) (%) {(1−amount of tumor growth in the group treated with the drug/amount of tumor growth in the control group)×100}

[2] = tested on: human liver cancer cell line PLC/PRF/5; assay: Antitumor effect in PLC/PRF/5 tumor-bearing nude mice; conditions: PLC/PRF/5 s.c. xenograft, BALB/c nude mice, 60 mg/kg/inj. (47 in terms of free base) intravenously, once a week for three weeks
Experimental: Antitumor effects were determined for representative examples of the compound groups of the present invention. Antitumor effects were determined using tumor-bearing mice generated by subcutaneous transplantation of human liver cancer cell line PLC/PRF/5 obtained from Human Science into the right ventral neck of BALB/c nude mice purchased from Japan Charles River.
After a one-week quarantine period, the purchased nude mice were subjected to subcutaneous transplantation of 20×10^6 PLC/PRF/5 cells to their right ventral neck. Mice with a tumor size reaching 200 mm^3 or so were subjected to the experiment.
as §1
(§2) Tumor growth inhibition (TGI) (%)={(1−amount of tumor growth in the group treated with the drug/amount of tumor growth in the control group)×100}

[3] = tested on: human pancreatic cancer cell line AsPC-1; assay: Antitumor effect in AsPC-1 tumor-bearing nude mice; conditions: AsPC-1 s.c. xenograft, BALB/c nude mice, 60 mg/kg/inj. (47 in terms of free base) intravenously, once a week for three weeks
Experimental: Antitumor effects were determined for representative examples of the compound groups of the present invention. Antitumor effects were determined using tumor-bearing mice generated by subcutaneous transplantation of human pancreatic cancer cell line AsPC-1 obtained from American Type Culture Collection (Virginia, USA) into the right ventral neck of BALB/c nude mice purchased from Japan Charles River.
After a one-week quarantine period, the purchased nude mice were subjected to subcutaneous transplantation of 4.8×10^6 AsPC-1 cells to their right ventral neck. Mice with a tumor size reaching 200 mm^3 or so were subjected to the experiment.
(§3) The compounds were dissolved in 1 mM citric acid/physiological saline (pH3.1-3.2), and were administered intravenously. The administration was carried out once a week for three weeks, for a total of three administrations. The antitumor effect was determined as tumor growth inhibition (TGI), using the following equation.
as §2

[4] = tested on: human ovarian cancer cell line SK-OV-3; assay: Antitumor effect in SK-OV-3 tumor-bearing nude mice; conditions: SK-OV-3 s.c. xenograft, BALB/c nude mice, 60 mg/kg/inj. (47 in terms of free base) intravenously, once a week for three weeks
Experimental: Antitumor effects were determined for representative examples of the compound groups of the present invention. Antitumor effects were determined using tumor-bearing mice generated by subcutaneous transplantation of the human ovarian cancer cell line SK-OV-3 obtained from American Type Culture Collection (Virginia, USA) into the right ventral neck of BALB/c nude mice purchased from Japan Charles River.
After a six-day quarantine period, the purchased nude mice were subjected to subcutaneous transplantation of a 2-3 mm square piece of the SK-OV-3 tumor to their right ventral neck. Mice with a tumor size reaching 210 mm^3 or so were subjected to the experiment.
as §1, §2

[5] = tested on: human pancreatic cancer cell line BxPC-3; assay: Antitumor effect in BxPC-3 tumor-bearing nude mice; conditions: BxPC-3 s.c. xenograft, BALB/c nude mice, 66 mg/kg/inj. (47 in terms of free base) intravenously, once a week for three weeks
Experimental: Antitumor effects were determined for representative examples of the compound groups of the present invention. Antitumor effects were determined using tumor-bearing mice generated by subcutaneous transplantation of human pancreatic cancer cell line BxPC-3 obtained from American Type Culture Collection (Virginia, USA) into the right ventral neck of BALB/c nude mice purchased from Japan Charles River.
After a seven-day quarantine period, the purchased nude mice were subjected to subcutaneous transplantation of 9×10^6 BxPC-3 cells to their right ventral neck. Mice with a tumor size reaching 400 mm^3 or so were subjected to the experiment.
as §3, §2

[6] = tested on: human pancreatic cancer cell line Capan-1; assay: Antitumor effect in Capan-1 tumor-bearing nude mice; conditions: Capan-1 s.c. xenograft, BALB/c nude mice, 66 mg/kg/inj. (47 in terms of free base) intravenously, once a week for three weeks
Experimental: Antitumor effects were determined for representative examples of the compound groups of the present invention. Antitumor effects were determined using tumor-bearing mice generated by subcutaneous transplantation of human pancreatic cancer cell line Capan-1 obtained from American Type Culture Collection (Virginia, USA) into the right ventral neck of BALB/c nude mice purchased from Japan Charles River.
After a 19-day quarantine period, the purchased nude mice were subjected to subcutaneous transplantation of 10×10^6 Capan-1 cells to their right ventral neck. Mice with a tumor size reaching 260 mm^3 or so were subjected to the experiment.
as §3, §2

SMILES: CCCCCN1C=Nc2cccc3nc4c(c1c23)Cn1c-4cc2c(c1=O)COC(=O)[C@@]2(CC)OC(=O)CN(C)C(=O)CN.Cl [Compound 2A, (9S)-9-Ethyl-9-(glycyl-sarcosyloxy)-1-pentyl-1H,12H-pyrano[3″,4″:6′,7′]indolizino[1′,2′:6,5]pyrido[4,3,2-de]quinazoline-10,13(9H,15H)-dione Hydrochloride]
- TGI (%) on Day 21 [1]: 84%
- TGI (%) on Day 21 [2]: 84%
- TGI (%) on Day 21 [3]: 73%
- TGI (%) on Day 21 [4]: 52%
- TGI (%) on Day 14 ([5]; Day 14): 55%
- TGI (%) on Day 21 ([5]; Day 21): 47%
- TGI (%) on Day 21 [6]: 122%
